# Measurements: patent publication US5086049A, “7[4-(5 methyl-2-oxo-1,3-dioxalen-4-yl)methyl 1-piperzinyl]-4-oxo-4H-[1,3]thiazeto[3,2-a]quinoline-3-carboxylic acids” (Nipponshinyaku Co., Ltd., priority 1987, dated 1992)
# Like-named read-outs stand apart in the source and are kept apart here.
# Columns and labels:
# P. aeruginosa E-2 = test: Therapeutic effect on infection in mice, P. aeruginosa; format: in vivo, ddY strain male mice; settings: P. aeruginosa E-2, 7.5×10^4 CFU/mouse i.p.; drug orally once 2 hours after inoculation; survival after one week, Probit method
# Procedure: (§1) Test method: E. coli KC-14 and P. aeruginosa E-2 were suspended in 5% mucin and 0.5 ml of the suspension was injected intraperitoneally to ddY strain male mice (body weight: ca. 20 g; four weeks age; 10 mice per group). The amount of the bacteria inoculated was 5.1×10^4 CFU/mouse for E. coli and 7.5×10^4 CFU/mouse for P. aeruginosa. The drug was given orally once after 2 hours of inoculation and, out of the survival rate after one week, an ED50 was calculated by a Probit method. Ofloxacin was used as the comparison/control.
# [1] = tested on: Shigella flexneri 2a EW-10; test: MIC by agar plate dilution method; format: cell-based; settings: 2AEW10, 10^6 CFU/ml, 37° C., 18 hours
# Procedure: (§2) Test Method: In accordance with a standard method by Japan Chemotherapeutic Society [Chemotherapy, 29(1), pages 76-79, 1981], agar plate dilution method was used and the MIC was measured. Thus, bouillon for measuring sensitivity was used and the bacterial liquid cultured at 37° C. for 18 hours was diluted to an extent of 10^6 CFU/ml using said medium. This was inoculated to an agar medium containing drug for measuring sensitivity using a microplanter, cultured at 37° C. for 18 hours, and MIC was measured. Ofloxacin was used for comparison/control.
# (§3) The compound of Example 2 was used as representative of the compounds of the present invention and ofloxacin was used as the Comparison/Control.
# [2] = tested on: Bacillus subtilis ATCC 6633; test: MIC by agar plate dilution method; format: cell-based; settings: ATCC6633, 10^6 CFU/ml, 37° C., 18 hours
# Procedure: as §2, §3
# [3] = tested on: Staphylococcus aureus 209-P JC-1; test: MIC by agar plate dilution method; format: cell-based; settings: 10^6 CFU/ml, 37° C., 18 hours
# Procedure: as §2, §3
# [4] = tested on: Escherichia coli N1JH JC-2; test: MIC by agar plate dilution method; format: cell-based
# Procedure: as §2, §3
# [5] = tested on: Streptococcus pneumoniae Type I; test: MIC by agar plate dilution method; format: cell-based; settings: 10^6 CFU/ml, 37° C., 18 hours
# Procedure: as §2, §3
# [6] = tested on: Proteus mirabilis IFO 3849; test: MIC by agar plate dilution method; format: cell-based; settings: IFO3849, 10^6 CFU/ml, 37° C., 18 hours
# Procedure: as §2, §3
# [7] = tested on: Pseudomonas aeruginosa IFO 3445; test: MIC by agar plate dilution method; format: cell-based; settings: IFO3445, 10^6 CFU/ml, 37° C., 18 hours
# Procedure: as §2, §3
# [8] = tested on: Streptococcus pyogenes S-23; test: MIC by agar plate dilution method; format: cell-based; settings: S23, 10^6 CFU/ml, 37° C., 18 hours
# Procedure: as §2, §3
# [9] = tested on: Serratia marcescens IFO 3736; test: MIC by agar plate dilution method; format: cell-based; settings: IFO3736, 10^6 CFU/ml, 37° C., 18 hours
# Procedure: as §2, §3
# [10] = tested on: Klebsiella pneumoniae NCTC 9632; test: MIC by agar plate dilution method; format: cell-based
# Procedure: as §2, §3
# E. coli KC-14 = test: Therapeutic effect on infection in mice, E. coli; format: in vivo, ddY strain male mice; settings: E. coli KC-14, 5.1×10^4 CFU/mouse i.p.; drug orally once 2 hours after inoculation; survival after one week, Probit method
# Procedure: as §1
smiles,measurement,setting,value
Cc1oc(=O)oc1CN1CCN(c2cc3c(cc2F)c(=O)c(C(=O)O)c2n3C(C)S2)CC1 (stereo not drawn) [Example 2],ED50,P. aeruginosa E-2,0.154 mg/mouse
same,MIC,[1],0.0125 µg/mL
same,MIC,[2],0.05 µg/mL
same,MIC,[3],0.1 µg/mL
same,MIC,"[4]; Escherichia coli, N1JHJC2, 18 h",0.0125 µg/mL
same,MIC,[5],0.39 µg/mL
same,MIC,[6],0.025 µg/mL
same,MIC,[7],0.2 µg/mL
same,MIC,[8],0.39 µg/mL
same,MIC,[9],0.2 µg/mL
same,MIC,"[10]; Klebsiella pneumoniae, NCTC9632, 18 h",0.0125 µg/mL
same,ED50,E. coli KC-14,0.0078 mg/mouse
"CCOC(=O)c1c2n(c3cc(N4CCN(Cc5oc(=O)oc5C)CC4)c(F)cc3c1=O)C(C)S2 (stereo not drawn) [Example 1, Ethyl 6-fluoro-1-methyl-7-[4-(5-methyl-2-oxo-1,3-dioxolen-4yl)methyl-1-piperazinyl]-4oxo-4H-[1,3-]thiazeto[3,2-a]quinoline-3-carboxylate]",ED50,P. aeruginosa E-2,0.354 mg/mouse
"CC1COc2c(N3CCN(C)CC3)c(F)cc3c(=O)c(C(=O)O)cn1c23 (racemic) [Ofloxacin, reference compound]",ED50,P. aeruginosa E-2,0.692 mg/mouse
same,MIC,[1],0.025 µg/mL
same,MIC,[2],0.1 µg/mL
same,MIC,[3],0.39 µg/mL
same,MIC,"[4]; N1JHJC2, Escherichia coli N1JH JC-2, 10^6 CFU/ml, 37° C., 18 hours, read-out: MIC",0.1 µg/mL
same,MIC,[5],1.56 µg/mL
same,MIC,[6],0.39 µg/mL
same,MIC,[7],1.56 µg/mL
same,MIC,[8],1.56 µg/mL
same,MIC,[9],0.78 µg/mL
same,MIC,"[10]; NCTC9632, Klebsiella pneumoniae NCTC 9632, 10^6 CFU/ml, 37° C., 18 hours, read-out: MIC",0.05 µg/mL
same,ED50,E. coli KC-14,0.011 mg/mouse
"Cc1oc(=O)oc1CN1CCN(c2cc3c(cc2F)c(=O)c(C(=O)O)c2n3C(C)S2)CC1.Cl (stereo not drawn) [Example 3, 6-Fluoro-1-methyl-7-[4-(5-methyl-2-oxo-1,3-dioxolen-4-yl)methyl-1-piperazinyl]-4-oxo-4H-[1,3]thiazeto[3,2-a]quinoline-3-carboxylic acid hydrochloride]",ED50,P. aeruginosa E-2,0.125 mg/mouse
same,ED50,E. coli KC-14,0.0078 mg/mouse
"COc1c(N2CCN(Cc3oc(=O)oc3C)CC2)c(F)cc2c(=O)c(C(=O)O)c3n(c12)C(C)S3 (stereo not drawn) [Example 14, 6-Fluoro-8-methoxy-1-methyl-7-[4-(5-methyl-2-oxo-1,3-dioxolen-4-yl)methyl-1-piperazinyl]-4-oxo-4H-[1,3]-thiazeto[3,2-a]quinoline-3-carboxylic acid]",ED50,P. aeruginosa E-2,0.427 mg/mouse
same,ED50,E. coli KC-14,0.0152 mg/mouse
"CS(=O)(=O)O.Cc1oc(=O)oc1CN1CCN(c2cc3c(cc2F)c(=O)c(C(=O)O)c2n3C(C)S2)CC1 (stereo not drawn) [Example 4, 6-Fluoro-1-methyl-7-[4-(5-methyl-2-oxo-1,3-dioxolen-4-yl)methyl-1-piperazinyl]-4-oxo-4H-[1,3]thiazeto[3,2-a]quinoline-3-carboxylic acid methanesulfonate]",ED50,P. aeruginosa E-2,0.125 mg/mouse
same,ED50,E. coli KC-14,0.0078 mg/mouse
"Cc1oc(=O)oc1CN1CCN(c2c(F)cc3c(=O)c(C(=O)O)c4n(c3c2F)C(C)S4)CC1 (stereo not drawn) [Example 8, 6,8-Difluoro-1-methyl-7-[4-(5-methyl-2-oxo-1,3-dioxolen-4-yl)methyl-1-piperazinyl]-4-oxo-4-[1,3]-thiazeto[3,2-a]quinoline-3-carboxylic acid]",ED50,P. aeruginosa E-2,0.125 mg/mouse
same,ED50,E. coli KC-14,0.0078 mg/mouse
